Experimental data as given in article PMC11642016 (International Journal of Molecular Sciences, 2024).
Several values for one entry are separate records, joined by “and”; a condition that tells them apart may be missing. Equal entries are not always repeated. Where two headings read alike, the source gives them in different places.

Columns and labels:
Fadu cells = test: CellTiter-Glo luminescent cell viability assay, Fadu; conditions: for Fadu Cell viability (% of controll) / viability at 0.7 µM / viability at 1 µM / viability at 1.5 µM / viability at 2.3 µM / viability at 7.7 µM / viability at 17.3 µM / viability at 26 µM: dose–response, individual replicates; for viability at 0.7 µM / viability at 1 µM / viability at 1.5 µM / viability at 2.3 µM / viability at 7.7 µM / viability at 17.3 µM / viability at 26 µM / IC50: Homo sapiens, FaDu; for viability at 0.7 µM: read-out: Fadu Cell viability (% of controll), 0.7 μM; for viability at 1 µM: read-out: Fadu Cell viability (% of controll), 1 μM; for viability at 1.5 µM: read-out: Fadu Cell viability (% of controll), 1.5 μM; for viability at 2.3 µM: read-out: Fadu Cell viability (% of controll), 2.3 μM; for viability at 7.7 µM: read-out: Fadu Cell viability (% of controll), 7.7 μM; for viability at 17.3 µM: read-out: Fadu Cell viability (% of controll), 17.3 μM; for viability at 26 µM: read-out: Fadu Cell viability (% of controll), 26 μM; for Selectivity Index (SI) Fibroblast/Fadu: ratio of mean best-fit IC50 for primary fibroblasts and best-fit IC50 for Fadu
PANC-1 cells = test: CellTiter-Glo luminescent cell viability assay, PANC-1; conditions: for viability at 0.7 µM: read-out: PANC-1 Cell viability (% of controll), 0.7 μM; for viability at 1 µM: read-out: PANC-1 Cell viability (% of controll), 1 μM; for viability at 1.5 µM: read-out: PANC-1 Cell viability (% of controll), 1.5 μM; for viability at 3.4 µM: read-out: PANC-1 Cell viability (% of controll), 3.4 μM; for viability at 5.1 µM: read-out: PANC-1 Cell viability (% of controll), 5.1 μM; for viability at 7.7 µM: read-out: PANC-1 Cell viability (% of controll), 7.7 μM; for viability at 17.3 µM: read-out: PANC-1 Cell viability (% of controll), 17.3 μM; for viability at 26 µM: read-out: PANC-1 Cell viability (% of controll), 26 μM; for Selectivity Index (SI) Fibroblast/PANC-1: ratio of mean best-fit IC50 for primary fibroblasts and best-fit IC50 for PANC-1
[1] = CellTiter-Glo luminescent cell viability assay, primary fibroblasts; conditions: human, primary skin fibroblasts (non-tumorous), Primer fibroblast Cell viability (% of controll), 72 h, dose–response, individual replicates
Procedure: (§1) Primary fibroblast cultures were prepared from human skin biopsies and maintained in DMEM supplemented with 10% FBS, 1% penicillin-streptomycin, and 1% MEM Non-Essential Amino Acids Solution (Thermo Fisher Scientific). […] All cell lines were cultured in a humidified atmosphere at 37 °C and 5% CO2, passaged twice a week, and the experiments were performed on cells between passage 5 and 15. The cell lines were routinely screened for the absence of mycoplasma infection (DAPI staining).
(§2) The effects of the synthesized compounds on cell viability were measured using the CellTiter-Glo® luminescent cell viability assay (Promega, Madison, WI, USA), according to the manufacturer’s instructions. Briefly, cells were seeded onto a flat-bottomed, white 96-well plate (BRANDplates, cat. no.: 781965)), with the following densities: PANC-1: 750 cells/well, Fadu: 2000 cells/well, primary fibroblasts: 2000 cells/well, HEK293T WT: 1000 cells/well, HEK293T CLPP^−/−: 2500 cells/well. After seeding, cells were incubated for a further 48 h before treatment. Cells were treated with the compounds for 72 h. Three concentrations (25.0 µM; 8.3 µM; 2.8 µM) were applied during the initial cell viability screening, while for the determination of dose–response curves, 1.5-fold serially diluted compound concentrations were applied (range: 26 µM–0.7 µM). After treatment, the luminescence signal was recorded using a microplate reader (BioTek Synergy 2 Multi-Mode Reader, BioTek, Winooski, VT, USA).
(§3) Data analysis was performed using GraphPad Prism 9.5.0 software (GraphPad Software, San Diego, CA, USA). […] The dose–response curves were generated by four-parameter nonlinear regression, and the IC50 values were determined as the means ± SEM of the best-fit values of 3 independent measurements. The R^2 values were consistently above 0.93, indicating a strong fit of the model to the experimental data (Supplementary S.89). […] Dunnett’s post hoc test was applied to adjust for multiple comparisons, minimizing the likelihood of false positive results. Assumptions for ANOVA, including normality (assessed via QQ plots) and homogeneity of variance (tested using the Brown–Forsythe test), were verified. The following significance levels were applied: * p < 0.05, ** p < 0.01, *** p < 0.001, **** p < 0.0001. […] The tumor selectivity of the compounds was quantitatively characterized by the selectivity index (SI). This parameter was calculated as the ratio of the average best-fit IC50 value for primary fibroblasts and the best-fit IC50 value for the corresponding tumor cells (PANC-1 or Fadu).

[2] = system: non-tumorous primary fibroblast cells; test: as above; conditions: for Primer fibroblast Cell viability (% of controll): dose–response, individual replicates; for IC50: Homo sapiens, Fibroblast
Procedure: as §1, §2, §3

[3] = 72 h, read-out: IC50 Value ± SEM Fadu, 72 h treatment, best-fit values, n = 3
[4] = read-out: Fadu IC50 values, Mean, mean of independently fitted replicate IC50 values (Supplement S.6)
[5] = 0.7 μM, 72 h, dose–response, individual replicates
[6] = 1 μM, 72 h, dose–response, individual replicates
[7] = 1.5 μM, 72 h, dose–response, individual replicates
[8] = 2.3 μM, 72 h, dose–response, individual replicates
[9] = 3.4 μM, 72 h, dose–response, individual replicates
[10] = 5.1 μM, 72 h, dose–response, individual replicates
[11] = 7.7 μM, 72 h, dose–response, individual replicates
[12] = 17.3 μM, 72 h, dose–response, individual replicates
[13] = 26 μM, 72 h, dose–response, individual replicates
[14] = Homo sapiens, PANC-1, 72 h, read-out: IC50 Value ± SEM PANC-1, 72 h treatment, best-fit values, n = 3
[15] = Homo sapiens, PANC-1, 72 h, 72 h, dose–response, individual replicates
[16] = Homo sapiens, PANC-1, read-out: PANC-1 IC50 values, Mean, mean of independently fitted replicate IC50 values (Supplement S.6)
[17] = 72 h, read-out: IC50 Value ± SEM Primary Fibroblast, 72 h treatment, best-fit values, n = 3
[18] = read-out: Primary fibroblast IC50 values, Mean, mean of independently fitted replicate IC50 values (Supplement S.6), ONC201 value mathematically estimated from inflection point

CNCC#Cc1cccc(CN2C(=O)C3=C(CCN(Cc4ccc(-n5cc(-c6cccc(F)c6)nn5)cc4)C3)N3CCN=C23)c1 [43a]
Fadu Cell viability (% of controll) (Fadu cells; 0.7 μM, 72 h): 109 % of controll
Fadu Cell viability (% of controll) (Fadu cells; 1 μM, 72 h): 109 % of controll
Fadu Cell viability (% of controll) (Fadu cells; 1.5 μM, 72 h): 104 % of controll and 103 % of controll
Fadu Cell viability (% of controll) (Fadu cells; 2.3 μM, 72 h): 80 % of controll and 88 % of controll
Fadu Cell viability (% of controll) (Fadu cells; 3.4 μM, 72 h): 71 % of controll and 29 % of controll and 38 % of controll
Fadu Cell viability (% of controll) (Fadu cells; 5.1 μM, 72 h): 5 % of controll and 0 % of controll
Fadu Cell viability (% of controll) (Fadu cells; 7.7 μM, 72 h): 0 % of controll
Fadu Cell viability (% of controll) (Fadu cells; 17.3 μM, 72 h): 0 % of controll
Fadu Cell viability (% of controll) (Fadu cells; 26 μM, 72 h): 0 % of controll
viability at 0.7 µM (Fadu cells; 72 h, 72 h): 108%
viability at 1 µM (Fadu cells; 72 h, 72 h): 112%
viability at 1.5 µM (Fadu cells; 72 h, 72 h): 103%
viability at 2.3 µM (Fadu cells; 72 h, 72 h): 95%
viability at 7.7 µM (Fadu cells; 72 h, 72 h): 0%
viability at 17.3 µM (Fadu cells; 72 h, 72 h): 0%
viability at 26 µM (Fadu cells; 72 h, 72 h): 0%
IC50 (Fadu cells; [3]): 3.2 ± 0.1 µM
IC50 (Fadu cells; [4]): 3.18 µM
Selectivity Index (SI) Fibroblast/Fadu (Fadu cells): 1.0
PANC-1 Cell viability (% of controll) (PANC-1 cells; [5]): 108 % of controll and 111 % of controll
PANC-1 Cell viability (% of controll) (PANC-1 cells; [6]): 112 % of controll and 115 % of controll
PANC-1 Cell viability (% of controll) (PANC-1 cells; [7]): 102 % of controll and 112 % of controll
PANC-1 Cell viability (% of controll) (PANC-1 cells; [8]): 93 % of controll and 84 % of controll and 107 % of controll
PANC-1 Cell viability (% of controll) (PANC-1 cells; [9]): 0 % of controll
PANC-1 Cell viability (% of controll) (PANC-1 cells; [10]): 0 % of controll
PANC-1 Cell viability (% of controll) (PANC-1 cells; [11]): 0 % of controll
PANC-1 Cell viability (% of controll) (PANC-1 cells; [12]): 0 % of controll
PANC-1 Cell viability (% of controll) (PANC-1 cells; [13]): 0 % of controll
IC50 (PANC-1 cells; [14]): 2.5 ± 0.94 µM
viability at 0.7 µM (PANC-1 cells; [15]): 114%
viability at 1 µM (PANC-1 cells; [15]): 110%
viability at 1.5 µM (PANC-1 cells; [15]): 102%
viability at 3.4 µM (PANC-1 cells; [15]): 0%
viability at 5.1 µM (PANC-1 cells; [15]): 0%
viability at 7.7 µM (PANC-1 cells; [15]): 0%
viability at 17.3 µM (PANC-1 cells; [15]): 0%
viability at 26 µM (PANC-1 cells; [15]): 0%
IC50 (PANC-1 cells; [16]): 2.48 µM
Selectivity Index (SI) Fibroblast/PANC-1 (PANC-1 cells): 1.3
viability at 72 h, 0.7 µM [1]: 99%
viability at 72 h, 1 µM [1]: 109%
viability at 72 h, 2.3 µM [1]: 111%
viability at 72 h, 3.4 µM ([1]; 3.4 μM): 35%
viability at 72 h, 5.1 µM [1]: 0%
viability at 72 h, 7.7 µM [1]: 0%
viability at 72 h, 17.3 µM [1]: 0%
viability at 72 h, 26 µM [1]: 0%
Primer fibroblast Cell viability (% of controll) ([2]; 0.7 μM, 72 h): 107 % of controll
Primer fibroblast Cell viability (% of controll) ([2]; 1 μM, 72 h): 108 % of controll and 106 % of controll
Primer fibroblast Cell viability (% of controll) ([2]; 1.5 μM, 72 h): 114 % of controll and 125 % of controll and 99 % of controll
Primer fibroblast Cell viability (% of controll) ([2]; 2.3 μM, 72 h): 101 % of controll and 104 % of controll
Primer fibroblast Cell viability (% of controll) ([2]; 3.4 μM, 72 h): 34 % of controll and 29 % of controll
Primer fibroblast Cell viability (% of controll) ([2]; 5.1 μM, 72 h): 0 % of controll
Primer fibroblast Cell viability (% of controll) ([2]; 7.7 μM, 72 h): 0 % of controll
Primer fibroblast Cell viability (% of controll) ([2]; 17.3 μM, 72 h): 0 % of controll
Primer fibroblast Cell viability (% of controll) ([2]; 26 μM, 72 h): 0 % of controll
IC50 [2, 17]: 3.2 ± 0.07 µM
IC50 [2, 18]: 3.23 µM

CNCC#Cc1cccc(CN2C(=O)C3=C(CCN(Cc4ccc(-n5cc(-c6ccc(F)cc6)nn5)cc4)C3)N3CCN=C23)c1 [43b]
Fadu Cell viability (% of controll) (Fadu cells; 0.7 μM, 72 h): 108 % of controll and 104 % of controll
Fadu Cell viability (% of controll) (Fadu cells; 1 μM, 72 h): 106 % of controll and 101 % of controll
Fadu Cell viability (% of controll) (Fadu cells; 2.3 μM, 72 h): 96 % of controll and 91 % of controll
Fadu Cell viability (% of controll) (Fadu cells; 3.4 μM, 72 h): 58 % of controll and 46 % of controll and 27 % of controll
Fadu Cell viability (% of controll) (Fadu cells; 5.1 μM, 72 h): 1 % of controll and 0 % of controll
Fadu Cell viability (% of controll) (Fadu cells; 7.7 μM, 72 h): 0 % of controll
Fadu Cell viability (% of controll) (Fadu cells; 17.3 μM, 72 h): 0 % of controll
Fadu Cell viability (% of controll) (Fadu cells; 26 μM, 72 h): 0 % of controll
viability at 0.7 µM (Fadu cells; 72 h, 72 h): 108%
viability at 1 µM (Fadu cells; 72 h, 72 h): 102%
viability at 1.5 µM (Fadu cells; 72 h, 72 h): 105%
viability at 2.3 µM (Fadu cells; 72 h, 72 h): 91%
viability at 7.7 µM (Fadu cells; 72 h, 72 h): 0%
viability at 17.3 µM (Fadu cells; 72 h, 72 h): 0%
viability at 26 µM (Fadu cells; 72 h, 72 h): 0%
IC50 (Fadu cells; [3]): 3.2 ± 0.06 µM
IC50 (Fadu cells; [4]): 3.25 µM
Selectivity Index (SI) Fibroblast/Fadu (Fadu cells): 1.1
PANC-1 Cell viability (% of controll) (PANC-1 cells; [5]): 103 % of controll and 101 % of controll
PANC-1 Cell viability (% of controll) (PANC-1 cells; [6]): 107 % of controll
PANC-1 Cell viability (% of controll) (PANC-1 cells; [7]): 99 % of controll and 110 % of controll
PANC-1 Cell viability (% of controll) (PANC-1 cells; [8]): 102 % of controll and 103 % of controll
PANC-1 Cell viability (% of controll) (PANC-1 cells; [9]): 10 % of controll and 7 % of controll
PANC-1 Cell viability (% of controll) (PANC-1 cells; [10]): 0 % of controll
PANC-1 Cell viability (% of controll) (PANC-1 cells; [11]): 0 % of controll
PANC-1 Cell viability (% of controll) (PANC-1 cells; [12]): 0 % of controll
PANC-1 Cell viability (% of controll) (PANC-1 cells; [13]): 0 % of controll
IC50 (PANC-1 cells; [14]): 3.1 ± 0.17 µM
viability at 0.7 µM (PANC-1 cells; [15]): 104%
viability at 1 µM (PANC-1 cells; [15]): 104%
viability at 1.5 µM (PANC-1 cells; [15]): 104%
viability at 2.3 µM (PANC-1 cells; Homo sapiens, PANC-1, 72 h, read-out: PANC-1 Cell viability (% of controll), 2.3 μM, 72 h, dose–response, individual replicates): 106%
viability at 3.4 µM (PANC-1 cells; [15]): 13%
viability at 5.1 µM (PANC-1 cells; [15]): 0%
viability at 7.7 µM (PANC-1 cells; [15]): 0%
viability at 17.3 µM (PANC-1 cells; [15]): 0%
viability at 26 µM (PANC-1 cells; [15]): 0%
IC50 (PANC-1 cells; [16]): 3.06 µM
Selectivity Index (SI) Fibroblast/PANC-1 (PANC-1 cells): 1.1
viability at 72 h, 0.7 µM [1]: 96%
viability at 72 h, 1 µM [1]: 102%
viability at 72 h, 1.5 µM ([1]; 1.5 μM): 107%
viability at 72 h, 2.3 µM [1]: 105%
viability at 72 h, 5.1 µM [1]: 0%
viability at 72 h, 7.7 µM [1]: 0%
viability at 72 h, 17.3 µM [1]: 0%
viability at 72 h, 26 µM [1]: 0%
Primer fibroblast Cell viability (% of controll) ([2]; 0.7 μM, 72 h): 105 % of controll and 104 % of controll
Primer fibroblast Cell viability (% of controll) ([2]; 1 μM, 72 h): 113 % of controll and 103 % of controll
Primer fibroblast Cell viability (% of controll) ([2]; 1.5 μM, 72 h): 105 % of controll and 97 % of controll
Primer fibroblast Cell viability (% of controll) ([2]; 2.3 μM, 72 h): 99 % of controll
Primer fibroblast Cell viability (% of controll) ([2]; 3.4 μM, 72 h): 89 % of controll and 54 % of controll and 50 % of controll
Primer fibroblast Cell viability (% of controll) ([2]; 5.1 μM, 72 h): 0 % of controll
Primer fibroblast Cell viability (% of controll) ([2]; 7.7 μM, 72 h): 0 % of controll
Primer fibroblast Cell viability (% of controll) ([2]; 17.3 μM, 72 h): 0 % of controll
Primer fibroblast Cell viability (% of controll) ([2]; 26 μM, 72 h): 0 % of controll
IC50 [2, 17]: 3.5 ± 0.17 µM
IC50 [2, 18]: 3.46 µM
